From PMC4128473 (Bioorganic & medicinal chemistry, 2014)

Molecular target: T1, hA3AR (Homo sapiens, UniProt P0DMS8)
T1 sequence (P0DMS8 1-318): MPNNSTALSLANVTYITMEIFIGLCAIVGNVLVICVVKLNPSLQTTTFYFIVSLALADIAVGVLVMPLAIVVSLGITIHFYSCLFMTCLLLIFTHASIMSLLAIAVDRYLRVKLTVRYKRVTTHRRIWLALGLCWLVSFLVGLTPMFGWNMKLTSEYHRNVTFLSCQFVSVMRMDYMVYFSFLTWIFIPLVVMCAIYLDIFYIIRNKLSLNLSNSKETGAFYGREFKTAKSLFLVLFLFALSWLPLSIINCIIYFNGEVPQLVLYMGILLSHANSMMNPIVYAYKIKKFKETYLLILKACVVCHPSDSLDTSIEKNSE
Assay type: cell-based
Settings: compared to Cl-IB-MECA as reference full agonist

Row | functional behaviour at hA3AR (cAMP assay) | SMILES
1 | inactive | COc1ccc(Cl)cc1CNc1ncnc2c1ncn2[C@@H]1OC[C@](O)(CO)[C@H]1O [10c, 1′-[N^6-(2-Methoxy-5-chlorobenzyl)-adenin-9-yl]-β-D-apio-D-furanose]
2 | partial agonist | COc1ccc(Cl)cc1CNc1ncnc2c1ncn2[C@@H]1OC[C@@](O)(CO)[C@H]1O [11c, 1′-[N^6-(2-Methoxy-5-chlorobenzyl)adenin-9-yl]-α-D-apio-L-furanose]
